Test results reported in patent US6545182B2, “Methods and compositions for modulating alpha adrenergic receptor activity” (Allergan Sales, Inc., priority 2000, dated 2003).

Assays:
[1] = test system: Sprague-Dawley rats; experiment: rat locomotor model to assess sedation; format: in vivo; settings: 1 mg/kg i.p., 30 minutes after injection, vs vehicle controls
Protocol: (§1) The physiological activity of these compounds was tested using four models: a rat locomotor model to assess sedation, an assay of cardiovascular activity in monkeys, a rat thermal paw withdrawal assay (Dirig et al., J. Neurosci. Methods 76:183-191 (1997) to test the alleviation of acute pain, and the rat spinal nerve ligation allodynia model (Kim and Chung, Pain 50:355-363 (1992) to assess the alleviation of neuropathic pain and central sensitization typical of chronic pain. As is known to those of skill in the art, these tests are established pharmacological methods for determining sedation, cardiovascular effects, acute pain and chronic pain, respectively, of pharmaceutical agents.
To test sedation, six male Sprague-Dawley rats were given up to 3 mg/kg of each compound in a saline or DMSO vehicle by intraperitoneal injection (i.p.). Sedation was graded 30 minutes following administration of the drug by monitoring locomotor skills as follows.
The Sprague-Dawley rats are weighed and 1 ml/kg body weight of an appropriate concentration (i.e. 3 mg/ml for a final dose of 3 mg/kg) drug solution is injected intraperitoneally. FORMULA 3 is formulated in approximately 10% DMSO and FORMULA 2 and FORMULA 4 are formulated in 50% DMSO. The results are compared to 29 historical controls that were injected with 1 ml/kg saline or 50% DMSO. Rat activity is then determined 30 minutes after injection of the drug solution. Rats are placed in a dark covered chamber and a digicom analyzer (Omnitech Electronic) quantitates their exploratory behavior for a five-minute period. The machine records each time the rat interrupts an array of 32 photoelectric beams in the X and Y orientation.

[2] = test system: patient two; experiment: treatment of visceral pain in a colon cancer patient; format: in vivo, human; settings: intravenous infusion twice daily, after two days
Source text: patient two suffering from colon cancer and undergoing chemotherapy experiences severe visceral pain associated with this primary condition. Treatment of this pain with opiates have been ineffective to provide substantial relief.
The patient is given a therapeutic amount of FORMULA 3 by intravenous infusion in a pharmaceutically acceptable vehicle. The treatment is given twice daily.
Under the same facts as Example 7, except the patient is given FORMULA 2 instead of FORMULA 3.

[3] = test system: rats with ligated L5 and L6 spinal nerves; experiment: rat spinal nerve ligation allodynia model (chronic pain); format: in vivo; settings: for reduction of the response to tactile stimuli that indicate tactile allodynia: 30 minutes after drug, von Frey hairs
Protocol: as §1
A model for chronic pain (in particular peripheral neuropathy such as causalgia) involves the surgical ligation of the L5 (and optionally the L6) spinal nerves on one side in experimental animals. Rats recovering from the surgery gain weight and display a level of general activity similar to that of normal rats. However, these rats develop abnormalities of the foot, wherein the hindpaw is moderately everted and the toes are held together. More importantly, the hindpaw on the side affected by the surgery appears to become sensitive to pain from low-threshold mechanical stimuli, such as that producing a faint sensation of touch in a human, within about 1 week following surgery. This sensitivity to normally non-painful touch is called “tactile allodynia” and lasts for at least two months. The response includes lifting the affected hindpaw to escape from the stimulus, licking the paw and holding it in the air for many seconds. None of these responses is normally seen in the control group.
Rats are anesthetized before surgery. The surgical site is shaved and prepared either with betadine or Novacaine. Incision is made from the thoracic vertebra Xlll down toward the sacrum. Muscle tissue is separated from the spinal vertebra (left side) at the L4-S2 levels. The L6 vertebra is located and the transverse process is carefully removed with a small rongeur to expose the L4-L6 spinal nerves. The L5 and L6 spinal nerves are isolated and tightly ligated with 6-0 silk thread. The same procedure is done on the right side as a control, except no ligation of the spinal nerves is performed.
A complete hemostasis is confirmed, then the wounds are sutured. A small amount of antibiotic ointment is applied to the incised area, and the rat is transferred to the recovery plastic cage under a regulated heat-temperature lamp. On the day of the experiment, at least seven days after the surgery, six rats per test group are administered the test drugs by intraperitoneal (i.p.) injection or oral gavage. For i.p. injection, the compounds are formulated in approximately 50% DMSO and given in a volume of 1 ml/kg body weight. FORMULA 2 was tested at doses ranging between 1 and 300 μg /kg, FORMULA 3 was tested at doses between 0.1 and 3 mg/kg and FORMULA 4 was tested at doses of 0.3 and 3 mg/kg. FORMULA 2 was also administered by oral gavage at doses of 0.1, 0.3 and 1 mg/kg body weight to 24-hour fasted rats. A volume equal to 1 ml/kg body weight of an appropriate concentration (i.e. 1 mg/ml for a 1 mg/kg dose) of FORMULA 2 formulated in approximately 50% DMSO was injected using an 18-gauge, 3-inch gavage needle that is slowly inserted through the esophagus into the stomach.
Tactile allodynia is measured prior to and 30 minutes after drug administration using von Frey hairs that are a series of fine hairs with incremental differences in stiffness. Rats are placed in a plastic cage with a wire mesh bottom and allowed to acclimate for approximately 30 minutes. The von Frey hairs are applied perpendicularly through the mesh to the mid-plantar region of the rats' hindpaw with sufficient force to cause slight buckling and held for 6-8 seconds. The applied force has been calculated to range from 0.41 to 15.1 grams. If the paw is sharply withdrawn, it is considered a positive response. […]

[4] = test system: patient one; experiment: treatment of allodynia resulting from shingles in a patient; format: in vivo, human; settings: oral dose in capsule form, two days' treatment
Source text: person one in generally good physical condition suffers from serious pain to their upper body due caused by contact of their skin with their clothing. The patient is unable to wear clothing on their upper body without severe pain.
The patient is given a therapeutically effective oral dose of FORMULA 3 in capsule form as needed for the treatment of pain.
Same facts as in Example 5, except the patient is given a therapeutically effective oral dose of FORMULA 2 in capsule form as needed for the treatment of pain.

OCCNC(=S)NCc1cccc(Cl)c1F [FORMULA 2, 1-(3-chloro-2-fluorobenzyl)-3-(2-hydroxyethyl)-thiourea]
reduction in the exploratory activity of the rats (sedation) [1]: none of the compounds caused a statistically significant reduction
visceral pain, patient report [2]: significant alleviation
reduction of the response to tactile stimuli that indicate tactile allodynia [3]: able to reduce the response to the tactile stimuli
percent reversal of allodynia ([3]; i.p. 10 μg/kg): 85%
percent reversal of allodynia ([3]; i.p. 30 μg/kg): 90%
percent reversal of allodynia ([3]; i.p. 100 μg/kg): 95%
percent reversal of allodynia ([3]; i.p. 300 μg/kg): 92%
percent reversal of allodynia ([3]; i.p. dose of 3 μg/kg): 55%
alleviation of allodynic pain ([3]; oral doses ranging from 0.1 to 1 mg/kg, 24-hour fasted rats): 82-86%
allodynia resulting from shingles, patient report [4]: markedly reduced

OCCNC(=S)NCc1ccc(F)cc1 [FORMULA 3]
reduction in the exploratory activity of the rats (sedation) [1]: none of the compounds caused a statistically significant reduction
visceral pain, patient report [2]: significant alleviation
reduction of the response to tactile stimuli that indicate tactile allodynia [3]: able to reduce the response to the tactile stimuli
percent reversal of allodynic pain ([3]; i.p. 1 mg/kg): 32%
percent reversal of allodynic pain ([3]; i.p. 3 mg/kg): 26%
percent reversal of allodynic pain ([3]; i.p. dose of 0.3 mg/kg): 34%
allodynia resulting from shingles, patient report [4]: markedly reduced
